Numbered stars: 1 amine (or outer) side, 2 acyl side, 3 side chain; on linkers, the order of the positions; unused ones are H or OH. Bridge positions count the residues as written; N and C are the ends. Square brackets hold non-standard residues; d marks the D form. Peptide text beside a SMILES is read from it. X6 = O=C(O)CC[C@H](CC(=O)[C@H](Cc1cnc[nH]1)N[*:1])C(=O)[*:2]; X4 = NC(=O)C[C@H](N[*:1])C(=O)C1CCC[C@H]1C(=O)[*:2]; X8 = C[C@@H](C(=O)[*:2])N(CCC(F)(F)F)[*:1]; N(2-hydroxyethyl)Ala = C[C@H](NCCO)C(=O)O; X7 = COCCN([C@@H](C)C(=O)[*:2])[*:1]; X1 = O=C(CN(CCC(F)(F)F)[*:1])[*:2]; NBnAla = C[C@H](NCc1ccccc1)C(=O)O; Hyp = O=C(O)[C@@H]1C[C@@H](O)CN1; NMeNle = CCCC[C@H](NC)C(=O)O; NEtAla = CCN[C@@H](C)C(=O)O; NMeA = CN[C@@H](C)C(=O)O; Nphe = O=C(O)CNCc1ccccc1; Dab = NCC[C@H](N)C(=O)O
These compounds were tested against T1, PD-1-Ig binding to PD-L1-TVMV-His (PD-L1-His) (Homo sapiens, UniProt Q9NZQ7) (assay: PD-1/PD-L1 Homogenous Time-Resolved Fluorescence (HTRF) binding assay). Conditions: range class; PD-L1-His 10 nM, PD-1-Ig 20 nM.
T1 construct: hPDL1(19-239)-TVMV-His; made in house; host or cells: HEK293T
T1 sequence (Q9NZQ7 with tags, fused parts or gaps): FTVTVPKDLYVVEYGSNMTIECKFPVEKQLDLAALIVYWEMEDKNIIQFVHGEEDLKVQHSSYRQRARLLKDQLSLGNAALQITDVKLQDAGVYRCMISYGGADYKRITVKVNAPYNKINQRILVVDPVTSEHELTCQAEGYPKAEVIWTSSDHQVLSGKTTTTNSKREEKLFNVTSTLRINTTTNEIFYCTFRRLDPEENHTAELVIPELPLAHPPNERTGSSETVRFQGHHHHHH
Description: Methods for Testing the Ability of Macrocyclic Peptides to Compete for the Binding of Pd-1 to Pd-L1 Using Homogenous Time-Resolved Fluorescence (HTRF) Binding Assays
The ability of the macrocyclic peptides of the present disclosure to bind to PD-L1 was investigated using a PD-1/PD-L1 Homogenous Time-Resolved Fluorescence (HTRF) binding assay.
Homogenous Time-Resolved Fluorescence (HTRF) Assays of Binding of Soluble PD-1 to Soluble PD-L1. Soluble PD-1 and soluble PD-L1 refers to proteins with carboxyl-end truncations that remove the transmembrane-spanning regions and are fused to heterologous sequences, specifically the Fc portion of the human immunoglobuling G sequence (Ig) or the hexahistidine epitope tag (His). All binding studies were performed in an HTRF assay buffer consisting of dPBS supplemented with 0.1% (w/v) bovine serum albumin and 0.05% (v/v) Tween-20. For the PD-1-Ig/PD-L1-His binding assay, inhibitors were pre-incubated with PD-L1-His (10 nM final) for 15 m in 4 μl of assay buffer, followed by addition of PD-1-Ig (20 nM final) in 1 μl of assay buffer and further incubation for 15 m. PD-L1 fusion proteins from either human, cynomologous macaques, mouse, or other species were used. HTRF detection was achieved using europium crypate-labeled anti-Ig monoclonal antibody (1 nM final) and allophycocyanin (APC) labeled anti-His monoclonal antibody (20 nM final). Antibodies were diluted in HTRF detection buffer and 5 μl was dispensed on top of binding reaction. The reaction was allowed to equilibrate for 30 minutes and signal (665 nm/620 nm ratio) was obtained using an EnVision fluorometer. Additional binding assays were established between PD-1-Ig/PD-L2-His (20 and 5 nM, respectively), CD80-His/PD-L1-Ig (100 and 10 nM, respectively) and CD80-His/CTLA4-Ig (10 and 5 nM, respectively). Binding/competition studies between biotinylated Compound No. 71 and human PD-L1-His were performed as follows. Macrocyclic peptide inhibitors were pre-incubated with PD-L1-His (10 nM final) for 60 minutes in 4 μl of assay buffer followed by addition of biotinylated Compound No. 71 (0.5 nM final) in 1 μl of assay buffer. Binding was allowed to equilibrate for 30 minutes followed by addition of europium crypated labeled Streptavidin (2.5 pM final) and APC-labeled anti-His (20 nM final) in 5 μl of HTRF buffer. The reaction was allowed to equilibrate for 30 m and signal (665 nm/620 nm ratio) was obtained using an EnVision fluorometer.
Recombinant Proteins. Carboxyl-truncated human PD-1 (amino acids 25-167) with a C-terminal human Ig epitope tag [hPD-1 (25-167)-3S-IG] and human PD-L1 (amino acids 18-239) with a C-terminal His epitope tag [hPD-L1(19-239)-tobacco vein mottling virus protease cleavage site (TVMV)-His] were expressed in HEK293T cells and purified sequentially by recombinant Protein A affinity chromatography and size exclusion chromatography. Human PD-L2-His (Sino Biologicals), CD80-His (Sino Biologicals), CTLA4-Ig (RnD Systems) were all obtained through commercial sources.
Ranges are as follows: A=0.10-10 μM; B=0.01-0.099 μM; C=0.005-0.0099 μM.

Row | IC50 [nM] | SMILES
1 | 10 to 99 | CCCC[C@H]1C(=O)N(C)[C@@H](CCCC)C(=O)N[C@@H](CC(C)C)C(=O)N[C@H](C(=O)NCC(N)=O)CSCC(=O)N[C@@H](Cc2ccc(O)cc2)C(=O)N(C)[C@@H](C)C(=O)N[C@@H](CC(N)=O)C(=O)N(CCC(F)(F)F)CC(=O)N[C@@H](Cc2cnc[nH]2)C(=O)N[C@@H](CCC(=O)O)C(=O)N2C[C@H](O)C[C@H]2C(=O)N[C@@H](Cc2c[nH]c3ccccc23)C(=O)N[C@@H](CCN)C(=O)N[C@@H](Cc2c[nH]c3ccccc23)C(=O)N1C [Example 3010] ({CH2CO}-Y[NMeA]N[X1]HE[Hyp]W[Dab]W[NMeNle][NMeNle]LCG-NH2; thioether N-14)
2 | 10 to 99 | CCCC[C@H]1C(=O)N(C)[C@@H](CCCC)C(=O)N[C@@H](CC(C)C)C(=O)N[C@H](C(=O)NCC(N)=O)CSCC(=O)N[C@@H](Cc2ccc(O)cc2)C(=O)N(CC(=O)O)CC(=O)N[C@@H](CC(N)=O)C(=O)N2CCC[C@H]2C(=O)N[C@@H](Cc2cnc[nH]2)C(=O)N[C@@H](CCC(=O)O)C(=O)N2C[C@H](O)C[C@H]2C(=O)N[C@@H](Cc2c[nH]c3ccccc23)C(=O)N[C@@H](CCN)C(=O)N[C@@H](Cc2csc3ccccc23)C(=O)N1C [Example 5003]
3 | 100 to 10000 | CCCC[C@H]1C(=O)N[C@@H](CC(C)C)C(=O)N[C@H](C(=O)NCC(N)=O)CSCC(=O)N[C@@H](Cc2ccc(O)cc2)C(=O)N(C)[C@@H](C)C(=O)N[C@@H](CC(N)=O)C(=O)N2CCC[C@H]2C(=O)N[C@@H](Cc2cnc[nH]2)C(=O)N[C@@H](CCC(=O)O)C(=O)N2C[C@H](O)C[C@H]2C(=O)N[C@@H](Cc2c[nH]c3ccccc23)C(=O)N[C@@H](CCN)C(=O)N[C@@H](Cc2c[nH]c3ccccc23)C(=O)N(Cc2ccccc2)[C@@H](C)C(=O)N1C [Example 3029] ({CH2CO}-Y[NMeA]NPHE[Hyp]W[Dab]W[NBnAla][NMeNle]LCG-NH2; thioether N-14)
4 | 10 to 99 | CCCC[C@H]1C(=O)N(C)[C@@H](CCCC)C(=O)N[C@@H](CC(C)C)C(=O)N[C@H](C(=O)NCC(N)=O)CSCC(=O)N[C@@H](Cc2ccc(O)cc2)C(=O)N(CC(=O)O)CC(=O)N[C@@H](CC(N)=O)C(=O)N2CCC[C@H]2C(=O)N[C@@H](Cc2cnc[nH]2)C(=O)N[C@@H](CCC(=O)O)C(=O)N2C[C@H](O)C[C@H]2C(=O)N[C@@H](Cc2c[nH]c3ccccc23)C(=O)N[C@@H](CCN)C(=O)N[C@@H](Cc2c[nH]c3ccccc23)C(=O)N1C [Example 3044]
5 | 10 to 99 | CCCC[C@H]1C(=O)N(C)[C@@H](CCCC)C(=O)N[C@@H](CC(C)C)C(=O)N[C@H](C(=O)NCC(N)=O)CSCC(=O)N[C@@H](Cc2ccc(O)cc2)C(=O)N(CCOC)[C@@H](C)C(=O)N[C@@H](CC(N)=O)C(=O)N2CCC[C@H]2C(=O)N[C@@H](Cc2cnc[nH]2)C(=O)N[C@@H](CCC(=O)O)C(=O)N2C[C@H](O)C[C@H]2C(=O)N[C@@H](Cc2c[nH]c3ccccc23)C(=O)N[C@@H](CCN)C(=O)N[C@@H](Cc2c[nH]c3ccccc23)C(=O)N1C [Example 3026] ({CH2CO}-Y[X7]NPHE[Hyp]W[Dab]W[NMeNle][NMeNle]LCG-NH2; thioether N-14)
6 | 5 to 9.9 | CCCC[C@H]1C(=O)N(CC)[C@@H](C)C(=O)N[C@@H](CC(C)C)C(=O)N[C@H](C(=O)NCC(N)=O)CSCC(=O)N[C@@H](Cc2ccc(O)cc2)C(=O)N(C)[C@@H](C)C(=O)N[C@@H](CC(N)=O)C(=O)C2CCC[C@H]2C(=O)N[C@@H](Cc2cnc[nH]2)C(=O)N[C@@H](CCC(=O)O)C(=O)N2C[C@H](O)C[C@H]2C(=O)N[C@@H](Cc2c[nH]c3ccccc23)C(=O)N[C@@H](CCN)C(=O)N[C@@H](Cc2c[nH]c3ccccc23)C(=O)N1C (stereo partly shown) [Example 3020] ({CH2CO}-Y[NMeA][X4]HE[Hyp]W[Dab]W[NMeNle][NEtAla]LCG-NH2; thioether N-13)
7 | 10 to 99 | CCCC[C@H]1C(=O)N[C@@H](CC(C)C)C(=O)N[C@H](C(=O)NCC(N)=O)CSCC(=O)N[C@@H](Cc2ccc(O)cc2)C(=O)N(C)[C@@H](C)C(=O)N[C@@H](CC(N)=O)C(=O)N2CCC[C@H]2C(=O)N[C@@H](Cc2cnc[nH]2)C(=O)N[C@@H](CCC(=O)O)C(=O)N2C[C@H](O)C[C@H]2C(=O)N[C@@H](Cc2c[nH]c3ccccc23)C(=O)N[C@@H](CCN)C(=O)N[C@@H](Cc2c[nH]c3ccccc23)C(=O)N(CCC(F)(F)F)[C@@H](C)C(=O)N1C [Example 3041] ({CH2CO}-Y[NMeA]NPHE[Hyp]W[Dab]W[X8][NMeNle]LCG-NH2; thioether N-14)
8 | 10 to 99 | CCCC[C@H]1C(=O)N(C)[C@@H](CCCC)C(=O)N[C@@H](CC(C)C)C(=O)N[C@H](C(=O)NCC(N)=O)CSCC(=O)N[C@@H](Cc2ccc(O)cc2)C(=O)N(C)[C@@H](C)C(=O)N[C@@H](CC(N)=O)C(=O)N2CCC[C@H]2C(=O)N[C@@H](Cc2cnc[nH]2)C(=O)N[C@@H](CCC(=O)O)C(=O)N(CCC(F)(F)F)CC(=O)N[C@@H](Cc2c[nH]c3ccccc23)C(=O)N[C@@H](CCN)C(=O)N[C@@H](Cc2c[nH]c3ccccc23)C(=O)N1C [Example 3007] ({CH2CO}-Y[NMeA]NPHE[X1]W[Dab]W[NMeNle][NMeNle]LCG-NH2; thioether N-14)
9 | 5 to 9.9 | CCCC[C@H]1C(=O)N(C)[C@@H](CCCC)C(=O)N[C@@H](CC(C)C)C(=O)N[C@H](C(=O)NCC(N)=O)CSCC(=O)N[C@@H](Cc2ccc(O)cc2)C(=O)N(CC)[C@@H](C)C(=O)N[C@@H](CC(N)=O)C(=O)N2CCC[C@H]2C(=O)N[C@@H](Cc2cnc[nH]2)C(=O)C[C@@H](CCC(=O)O)C(=O)N2C[C@H](O)C[C@H]2C(=O)N[C@@H](Cc2c[nH]c3ccccc23)C(=O)N[C@@H](CCN)C(=O)N[C@@H](Cc2c[nH]c3ccccc23)C(=O)N1C [Example 3017] ({CH2CO}-Y[NEtAla]NP[X6][Hyp]W[Dab]W[NMeNle][NMeNle]LCG-NH2; thioether N-13)
10 | 10 to 99 | CCCC[C@H]1C(=O)N(C)[C@@H](CCCC)C(=O)N[C@@H](CC(C)C)C(=O)N[C@H](C(=O)NCC(N)=O)CSCC(=O)N[C@@H](Cc2ccc(O)cc2)C(=O)N(CCC(F)(F)F)CC(=O)N[C@@H](CC(N)=O)C(=O)N2CCC[C@H]2C(=O)N[C@@H](Cc2cnc[nH]2)C(=O)N[C@@H](CCC(=O)O)C(=O)N2C[C@H](O)C[C@H]2C(=O)N[C@@H](Cc2c[nH]c3ccccc23)C(=O)N[C@@H](CCN)C(=O)N[C@@H](Cc2c[nH]c3ccccc23)C(=O)N1C [Example 3046] ({CH2CO}-Y[X1]NPHE[Hyp]W[Dab]W[NMeNle][NMeNle]LCG-NH2; thioether N-14)
11 | 10 to 99 | CCCC[C@H]1C(=O)N(C)[C@@H](CCCC)C(=O)N[C@@H](CC(C)C)C(=O)N[C@H](C(=O)NCC(N)=O)CSCC(=O)N[C@@H](Cc2ccc(O)cc2)C(=O)N(C)[C@@H](C)C(=O)N[C@@H](CC(N)=O)C(=O)N2CCC[C@H]2C(=O)N[C@@H](Cc2cnc[nH]2)C(=O)N[C@@H](CCC(=O)O)C(=O)N(Cc2ccccc2)CC(=O)N[C@@H](Cc2c[nH]c3ccccc23)C(=O)N[C@@H](CCN)C(=O)N[C@@H](Cc2c[nH]c3ccccc23)C(=O)N1C [Example 3004] ({CH2CO}-Y[NMeA]NPHE[Nphe]W[Dab]W[NMeNle][NMeNle]LCG-NH2; thioether N-14)
12 | 100 to 10000 | CCCC[C@H]1C(=O)N[C@@H](CC(C)C)C(=O)N[C@H](C(=O)NCC(N)=O)CSCC(=O)N[C@@H](Cc2ccc(O)cc2)C(=O)N(C)[C@@H](C)C(=O)N[C@@H](CC(N)=O)C(=O)N2CCC[C@H]2C(=O)N[C@@H](Cc2cnc[nH]2)C(=O)N[C@@H](CCC(=O)O)C(=O)N2C[C@H](O)C[C@H]2C(=O)N[C@@H](Cc2c[nH]c3ccccc23)C(=O)N[C@@H](CCN)C(=O)N[C@@H](Cc2c[nH]c3ccccc23)C(=O)N(CC(=O)O)CC(=O)N1C [Example 3037]
13 | 100 to 10000 | CCCC[C@H]1C(=O)N[C@@H](CC(C)C)C(=O)N[C@H](C(=O)NCC(N)=O)CSCC(=O)N[C@@H](Cc2ccc(O)cc2)C(=O)N(C)[C@@H](C)C(=O)N[C@@H](CC(N)=O)C(=O)N2CCC[C@H]2C(=O)N[C@@H](Cc2cnc[nH]2)C(=O)N[C@@H](CCC(=O)O)C(=O)N2C[C@H](O)C[C@H]2C(=O)N[C@@H](Cc2c[nH]c3ccccc23)C(=O)N[C@@H](CCN)C(=O)N[C@@H](Cc2c[nH]c3ccccc23)C(=O)N(CCO)[C@@H](C)C(=O)N1C [Example 3033] ({CH2CO}-Y[NMeA]NPHE[Hyp]W[Dab]W[N(2-hydroxyethyl)Ala][NMeNle]LCG-NH2; thioether N-14)

From patent publication US9861680B2, “Immunomodulators” (BRISTOL-MYERS SQUIBB COMPANY, priority 2014, dated 2018)
